Consider 8 compounds from US20100048731A1, “Hydroxylated Long-Chain Resveratrol Derivatives Useful as Neurotrophic Agents” (Centre National de la Recherche Scientifique(CNRS), priority 2006, published 2010).

Where two headings read alike, the source gives them in different places.

Assay [1] concerns microglial cell cultures treated with LPS. Briefly: TNF-α release (ELISA) in LPS-activated microglial cell cultures. Format: cell-based. As to conditions: read-out: decrease in TNF-α production compared to control values. Here is the method:
(§1) The experiments carried out thus relate to the capacity of RFA molecules (MRFA and DMRFA) to inhibit, in activated microglia, the release of nitrites and TNF-α.
The expression of TNF-α represents a microglial activation parameter often analyzed in the literature. […] A 24-hour activation by LPS leads to a strong increase in expression, detectable by ELISA.
In the experiments performed, TNF-α concentrations were measured after 24 hours of activation in microglial cell cultures treated with 0.01 μg/ml of LPS in the presence of MRFA-10, MRFA-12, MRFA-14, MRFA-16, MRFA-18, DMRFA-10, DMRFA-12, DMRFA-14, DMRFA-16, DMRFA-18, M-resveratrol, DM-resveratrol and resveratrol at concentrations of 5×10^−6 M, 10^−6 M and 10^−7 M.

A short description of assay [2]: DPPH test (antioxidant capacity). It counts as physicochemical. The settings on record: after 3 hours of incubation (time stated for the hybrid molecules); read-out: IC50 (concentration at which 50% of the radicals are reduced), DPPH test. The protocol: The DPPH [(2,2′-di(4-tert-octylphenyl)1-picrylhydrazyl] test was used to determine the antioxidant capacity of our compounds [9]. DPPH is a stabilized radical that absorbs at 517 nm (violet color). When it is placed in the presence of an antioxidant molecule, the latter will react with the radical. Thus, a decrease in absorbance can be observed. Antioxidant capacity thus results in a decrease in absorbance at 517 nm.
a) Implementation of the DPPH Test
On a 96-well ELISA plate, add: • 100 μl of the various solutions at the following concentrations: 10 mM, 5 mM, 2.5 mM, 1 mM, 0.5 mM, 0.1 mM, 0.01 mM and 0.001 mM; • 100 μl of a 400 μM solution of DPPH in ethanol.
After incubating for 45 minutes, 2 hours and 3 hours, the result is given by measuring optical density at […] using a spectrophotometer.
The result is expressed as IC50, which is the concentration at which 50% of the radicals are reduced by the antioxidant molecule.
The inventors tested resveratrol, as a positive control, as well as RFA-10, RFA-12 and RFA-16.
A general note: The DPPH test is a chemical assay of radical scavenging.

Assay [3] is described as follows: ABTS test (antioxidant capacity, hydroxyl radicals from the Fenton reaction). Format: physicochemical. As to conditions: after 2 hours of incubation. The text has this: In light of the results obtained with the DPPH test, the use of the ABTS ([2,2′-azino-bis-(3-ethylbenzthiazoline-6-sulfonic acid)]) test was considered, [11], [12]. The ABTS test is more sensitive insofar as it uses less encumbered hydroxyl radicals.
The ABTS molecule reacts with the hydroxyl (OH) radicals generated in the medium by the Fenton reaction to form a cation radical, ABTS^+ (green color), which is absorbent at 405 nm. Thus, when it is placed in the presence of an antioxidant molecule, one capable of reducing hydroxyl radicals, a reduction in absorbance at 405 nm can be observed.
On a 96-well ELISA plate, add: • 180 μl of a 50/50 water/ethanol mixture; • 30 μl of a 1 mM aqueous ABTS solution; • 30 μl of a 1 mM aqueous FeSO4 solution; • 30 μl of the product to be tested at the following concentrations: 10 mM, 5 mM, 2.5 mM, 1 mM, 0.5 mM, 0.1 mM, 0.01 mM and 0.001 mM; • 30 μl of a 100 mM aqueous H2O2 solution.
After incubating for 45 minutes, 1 hour and 2 hours, the result is given by measuring optical density at 405 nm using a spectrophotometer.
In order to maximally reduce solubility problems, RFA-10 was tested. Resveratrol was again used as a positive control.

In assay [4] the test system is microglial cell cultures treated with LPS. The assay can be described thus: Nitrite release (Griess method) in LPS-activated microglial cell cultures. Format: cell-based. As to conditions: LPS 0.01 μg/ml; for decrease in nitrite production compared to the control values: three independent experiments, concentration not stated (5×10^-6, 10^-6 and 10^-7 M tested).
Text: as §1
The activity of NO-synthase type II (NOS II) represents a microglial activity parameter often analyzed in the literature. This enzyme is responsible for the synthesis of nitric oxide radicals under conditions of inflammatory activation. Microglia at rest only express levels at the immunoblotting detection limit. Activation of 24 to 48 hours leads to a strong increase in this expression. The product of this enzyme, NO, quickly breaks down in culture to form nitrites.
In the experiments performed, NO2^− concentrations were measured after 24 hours and 48 hours of activation in microglial cell cultures treated with 0.01 μg/ml of LPS, in the presence of products RFA-12, MRFA-10, MRFA-12, MRFA-14, MRFA-16, MRFA-18, DMRFA-10, DMRFA-12, DMRFA-14, DMRFA-16, DMRFA-18, M-resveratrol, DM-resveratrol and resveratrol at concentrations of 5×10^−6 M, 10^−6 M and 10^−7 M.
In general terms: Griess reagent forms a coloured azo dye with nitrite.

Assay [5] has as its system neural stem cells. The assay can be described thus: Differentiation of neural stem cells (neurospheres) into neurons, by immunocytochemistry. It counts as cell-based, mouse. The settings on record: for increase in the neuron population compared to the control fixed at 100%: 3 days of differentiation. Here is the method:
(§2) Neurospheres are obtained from mouse embryo telencephalon cells cultivated in a defined medium containing 20 ng/ml EGF. After dissociation, the spheres proliferate for 3 days in the presence of EGF (20 ng/ml) during the so-called proliferation phase.
The spheres are then collected and deposited on an poly-ornithine support in a defined medium in the presence of 2 ng/ml EGF. Under these conditions, the spheres adhere to the support and differentiate. The compounds to be tested, RFA-12 and its analogues, dissolved beforehand in ethanol, are added immediately after the deposit of the neurospheres at various concentrations ranging from 10^−5 M to 10^−9 M. The control cultures are treated with a negative control (ethanol) and a positive control (retinoic acid).
To screen our compounds we performed a double labeling, namely for neurons and for astrocytes.
For the detection of astrocytes, a secondary antibody coupled to a fluorochrome derived from rhodamine, Alexa488 (green), was used.
In order to be able to quantify the results, the nuclei are marked by an intercalating agent, TO-PRO (blue). The cultures are then observed under a confocal microscope.

Assay [6] concerns neural stem cells. Briefly: Neural stem cell proliferation. It counts as cell-based, mouse. As to conditions: 10^-6 M; cultured for 5 days. Here is the method: as §2
1. RFA-12 induces the differentiation of neural stem cells into neurons. […] However, if the neurospheres are treated with RFA-12 at a concentration of 10^−6 M to 10^−8 M, an increase in the number of neurons compared to the control (untreated cells) is observed. At concentrations of 10^−6 M, 10^−7 M and 10^−8 M we can observe a 120%, 90% and 80% increase, respectively, in the neuron population compared to the control fixed at 100%. […] In order to see whether RFA and its analogues also act on neural stem cell proliferation, these cells are dissociated and then cultured in the presence of RFA (10^−6 M and 10^−8 M) for 5 days, and then the number of living cells and their size and morphology are recorded.

The mark [7] stands for this setting: LPS 0.01 μg/ml, 24 hours of activation, compound at 5×10^-6 M.

For the compound `COc1ccc(/C=C/c2cc(OC)c(CCCCCCCCCCCCCCO)c(OC)c2)cc1` [MRFA-14, (E)-14-(4-(4-methoxystyryl)-2,6-dimethoxyphenyl)tetradecan-1-ol], the inhibition at 5 µM in assay [1] (setting [7]) fell in the range of 20 to 40%.

For `COc1ccc(/C=C/c2cc(OC)c(CCCCCCCCCCCCO)c(OC)c2)cc1OC` [DMRFA-12], in assay [1] (setting [7]), the inhibition at 5 µM came out at 40%.

Consider `COc1ccc(/C=C/c2cc(OC)c(CCCCCCCCCCCCO)c(OC)c2)cc1` [MRFA-12], for which, in assay [1] (setting [7]), the inhibition at 5 µM lay within 20 to 40%.

As to `Oc1ccc(/C=C/c2cc(O)cc(O)c2)cc1` [resveratrol], the IC50 was 10 µM in assay [2] and 30 µM in assay [3]. In assay [4], the “decrease in nitrite production compared to the control values” (from here on “decrease in nitrite production”) was 20%. Also, the inhibition at 5 µM in assay [1] (setting [7]) stood at 30%.

For `COc1ccc(/C=C/c2cc(OC)c(CCCCCCCCCCO)c(OC)c2)cc1OC` [DMRFA-10], the “decrease in nitrite production” value in assay [4] amounted to 20%. Besides, in assay [1] (setting [7]), the inhibition at 5 µM was determined as 40%.

For `COc1ccc(/C=C/c2cc(OC)c(CCCCCCCCCCO)c(OC)c2)cc1` [MRFA-10], the “decrease in nitrite production” value in assay [4] is 20%. For the same compound, the inhibition at 5 µM in assay [1] (setting [7]) lay in the range of 20 to 40%.

As to `COc1ccc(/C=C/c2cc(OC)cc(OC)c2)cc1` [M-resveratrol, reference compound], the inhibition at 5 µM in assay [1] (24 h) stood at 20%.

In the case of `OCCCCCCCCCCCCc1c(O)cc(/C=C/c2ccc(O)cc2)cc1O` [RFA-12], the “decrease in nitrite levels” value in assay [4] (compound at 5×10^-6 M) was 50%. For the same compound, the inhibition at 5 µM in assay [1] (setting [7]) is 40%. In addition, the “differentiation of neural stem cells, result in words” value with neural stem cells [5] (10^-5 M) is recorded as “does not induce differentiation due to toxicity”; with neural stem cells [5] (10^-9 M), “only weak activity”. The “increase in the neuron population compared to the control fixed at 100%” value in the assay with neural stem cells [5] (10^-6 M) was 120%; with neural stem cells [5] (10^-7 M), 90%; in the assay on neural stem cells [5] (10^-8 M), 80%. Also, the “effect on neural stem cell proliferation” value with neural stem cells [6] is listed as “inhibits the proliferation of neural stem cells”.
